Data from ChEMBL document CHEMBL4831486, “Design, synthesis and biological evaluation of pleuromutilin-Schiff base hybrids as potent anti-MRSA agents in vitro and in vivo” (Eur J Med Chem, 2021).
In brackets after ≈: the same amount, converted by molar mass.

Columns and labels:
Staphylococcus aureus [1] = test: Antibacterial activity against Methycillin-resistant Staphylococcus aureus ATCC 43300 assessed as inhibition of bacterial growth measured after 24 hrs by broth dilution method; type: functional
Staphylococcus aureus [2] = test: Antibacterial activity against Staphylococcus aureus ATCC 29213 assessed as inhibition of bacterial growth measured after 24 hrs by broth dilution method; type: functional
Staphylococcus aureus [3] = test: Antibacterial activity against Staphylococcus aureus AD3 assessed as inhibition of bacterial growth measured after 24 hrs by broth dilution method; type: functional
Staphylococcus aureus [4] = test: Antibacterial activity against Staphylococcus aureus 144 assessed as inhibition of bacterial growth measured after 24 hrs by broth dilution method; type: functional
Escherichia coli [5] = test: Antibacterial activity against Escherichia coli ATCC 25922 assessed as inhibition of bacterial growth measured after 24 hrs by broth dilution method; type: functional
Staphylococcus aureus [6] = test: Bactericidal activity against Methycillin-resistant Staphylococcus aureus ATCC 43300 assessed as inhibition of bacterial growth measured after 96 hrs by broth dilution method; type: functional
Staphylococcus aureus [7] = test: Bactericidal activity against Staphylococcus aureus ATCC 29213 assessed as inhibition of bacterial growth measured after 96 hrs by broth dilution method; type: functional
Staphylococcus aureus [8] = test: Bactericidal activity against Staphylococcus aureus AD3 assessed as inhibition of bacterial growth measured after 96 hrs by broth dilution method; type: functional
Staphylococcus aureus [9] = test: Bactericidal activity against Staphylococcus aureus 144 assessed as inhibition of bacterial growth measured after 96 hrs by broth dilution method; type: functional
Escherichia coli [10] = test: Bactericidal activity against Escherichia coli ATCC 25922 assessed as inhibition of bacterial growth measured after 96 hrs by broth dilution method; type: functional
RAW264.7 = test: Cytotoxicity against mouse RAW264.7 cells assessed as reduced cell viability at 4 ug/ml measured after 16 hrs by MTT assay; type: cell-based; details: raw264.7, 16 h, dose 4 µg/ml
HepG2 = test: Cytotoxicity against human HepG2 cells assessed as reduced cell viability at 4 ug/ml measured after 16 hrs by MTT assay; type: cell-based; details: hepg2, 16 h, dose 4 µg/ml
Staphylococcus aureus [11] = test: Bactericidal activity against methicillin-resistant Staphylococcus aureus ATCC 43300 assessed as reduction in bacterial growth at 2X MIC measured for 24 hrs by time kill assay; type: functional; set-up: scale not given: the % may be the effect or the level left
Staphylococcus aureus [12] = test: (§1) Antibacterial activity against methicillin-resistant Staphylococcus aureus ATCC 43300 assessed as post antibiotic effect by measuring time required for increase in 1 log10 CFU/ml of bacteria at 2X MIC incubated for 2 hrs followed by compound washout and measured after 20 hrs by time-kill assay (reference value: 2.04 hrs); type: functional
Staphylococcus aureus [13] = test: as §1, with “4X” for “2X”; type: functional
Staphylococcus aureus [14] = test: Antibacterial activity against methicillin-resistant Staphylococcus aureus ATCC 43300 infected in neutropenic CD1 mouse model of thigh infection assessed as reduction in bacterial colony forming unit in thigh at 20 mg/kg, iv qd measured after 24 hrs relative to control; type: functional
Staphylococcus aureus [15] = test: Antibacterial activity against methicillin-resistant Staphylococcus aureus ATCC 43300 assessed as inhibition of bacterial growth measured after 8 passages at sub-MIC concentration incubated for 24 hrs by resistant development assay; type: functional

| Structure (SMILES) | MIC (Staphylococcus aureus [1]) | MIC (Staphylococcus aureus [2]) | MIC (Staphylococcus aureus [3]) | MIC (Staphylococcus aureus [4]) | MIC (Escherichia coli [5]) | MBC (Staphylococcus aureus [6]) | MBC (Staphylococcus aureus [7]) | MBC (Staphylococcus aureus [8]) | MBC (Staphylococcus aureus [9]) | MBC (Escherichia coli [10]) | Activity (RAW264.7) | Activity (HepG2) | Activity (Staphylococcus aureus [11]) | Time (Staphylococcus aureus [12]) | Time (Staphylococcus aureus [13]) | Activity (Staphylococcus aureus [14]) | MIC (Staphylococcus aureus [15]) |
| --- | --- | --- | --- | --- | --- | --- | --- | --- | --- | --- | --- | --- | --- | --- | --- | --- | --- |
| C=C[C@]1(C)C[C@@H](OC(=O)CSc2nnc(C)n2/N=C/c2cccc(C(F)(F)F)c2)[C@]2(C)[C@H](C)CC[C@]3(CCC(=O)[C@H]32)[C@@H](C)[C@@H]1O | 2 µg/mL (≈ 3.09 µM) | 2 µg/mL (≈ 3.09 µM) | 2 µg/mL (≈ 3.09 µM) | 4 µg/mL (≈ 6.18 µM) | > 64 µg/mL | 4 µg/mL (≈ 6.18 µM) | 4 µg/mL (≈ 6.18 µM) | 4 µg/mL (≈ 6.18 µM) | 4 µg/mL (≈ 6.18 µM) | > 64 µg/mL | Non-Toxic | Non-Toxic |  |  |  |  |  |
| C=C[C@]1(C)C[C@@H](OC(=O)CSc2nnc(C)n2/N=C/c2ccc(N3CCOCC3)cc2)[C@]2(C)[C@H](C)CC[C@]3(CCC(=O)[C@H]32)[C@@H](C)[C@@H]1O | 0.5 µg/mL (≈ 0.753 µM) | 1 µg/mL (≈ 1.51 µM) | 1 µg/mL (≈ 1.51 µM) | 2 µg/mL (≈ 3.01 µM) | > 64 µg/mL | 1 µg/mL (≈ 1.51 µM) | 2 µg/mL (≈ 3.01 µM) | 4 µg/mL (≈ 6.03 µM) | 4 µg/mL (≈ 6.03 µM) | > 64 µg/mL | Non-Toxic | Non-Toxic |  |  |  |  |  |
| C=C[C@]1(C)C[C@@H](OC(=O)CSc2nnc(C)n2/N=C/c2ccc(C#N)cc2)[C@]2(C)[C@H](C)CC[C@]3(CCC(=O)[C@H]32)[C@@H](C)[C@@H]1O | 1 µg/mL (≈ 1.66 µM) | 1 µg/mL (≈ 1.66 µM) | 2 µg/mL (≈ 3.31 µM) | 2 µg/mL (≈ 3.31 µM) | > 64 µg/mL | 4 µg/mL (≈ 6.62 µM) | 4 µg/mL (≈ 6.62 µM) | 4 µg/mL (≈ 6.62 µM) | 4 µg/mL (≈ 6.62 µM) | > 64 µg/mL | Non-Toxic | Non-Toxic |  |  |  |  |  |
| C=C[C@]1(C)C[C@@H](OC(=O)CSc2nnc(C)n2/N=C/c2ccc(C(F)(F)F)cc2)[C@]2(C)[C@H](C)CC[C@]3(CCC(=O)[C@H]32)[C@@H](C)[C@@H]1O | 2 µg/mL (≈ 3.09 µM) | 2 µg/mL (≈ 3.09 µM) | 2 µg/mL (≈ 3.09 µM) | 4 µg/mL (≈ 6.18 µM) | > 64 µg/mL | 4 µg/mL (≈ 6.18 µM) | 4 µg/mL (≈ 6.18 µM) | 8 µg/mL (≈ 12.4 µM) | 8 µg/mL (≈ 12.4 µM) | > 64 µg/mL | Non-Toxic | Non-Toxic |  |  |  |  |  |
| C=C[C@]1(C)C[C@@H](OC(=O)CSc2nnc(C)n2/N=C/c2ccc(-c3ccccn3)cc2)[C@]2(C)[C@H](C)CC[C@]3(CCC(=O)[C@H]32)[C@@H](C)[C@@H]1O | 0.25 µg/mL (≈ 0.381 µM) | 0.5 µg/mL (≈ 0.762 µM) | 0.5 µg/mL (≈ 0.762 µM) | 1 µg/mL (≈ 1.52 µM) | > 64 µg/mL | 1 µg/mL (≈ 1.52 µM) | 1 µg/mL (≈ 1.52 µM) | 2 µg/mL (≈ 3.05 µM) | 4 µg/mL (≈ 6.1 µM) | > 64 µg/mL | Non-Toxic | Non-Toxic | 99.9% | 4.06 h | 4.27 h | -2.28 log10CFU/ml | 2 µg/mL (≈ 3.05 µM) |
| C=C[C@]1(C)C[C@@H](OC(=O)CSc2nnc(C)n2/N=C/c2cccc(C#N)c2)[C@]2(C)[C@H](C)CC[C@]3(CCC(=O)[C@H]32)[C@@H](C)[C@@H]1O | 1 µg/mL (≈ 1.66 µM) | 1 µg/mL (≈ 1.66 µM) | 2 µg/mL (≈ 3.31 µM) | 2 µg/mL (≈ 3.31 µM) | > 64 µg/mL | 2 µg/mL (≈ 3.31 µM) | 4 µg/mL (≈ 6.62 µM) | 8 µg/mL (≈ 13.2 µM) | 4 µg/mL (≈ 6.62 µM) | > 64 µg/mL | Non-Toxic | Non-Toxic |  |  |  |  |  |
